This is an account of results in patent US4495195A, “Xanthine oxidase inhibiting 3(5)-phenyl-substituted-5(3)-pyrazole-carboxylic acid derivatives, compositions, and methods of use” (Eli Lilly and Company, priority 1982, dated 1985).

Read-outs that look alike come from different tables or passages of the source.

For data set [1], the target named is T1, xanthine oxidase (Bos taurus, UniProt P80457).
T1 construct: purchased Sigma Chemical Company, St. Louis, Missouri
The data set is described as follows: in vitro xanthine oxidase assay (rate of uric acid formation from xanthine). The class given is biochemical. As for the experimental part:
Xanthine oxidase activity was measured at room temperature by the rate of uric acid formation from xanthine substrate. In a total volume of 1 ml., the incubation mixture contained 50 micromoles of potassium phosphate buffer at pH 7.4, 0.05 micromoles of xanthine and 0.01 units of enzyme preparation (chromatographically purified milk xanthine oxidase, grade III, obtained from Sigma Chemical Company, St. Louis, Missouri). The absorbence change at 292 nm was recored by a Gilford recording spectrophotometer and the uric acid formed was calculated using an extinction coefficient of 12 mM^-1 cm^-1 at 292 nm.

Data set [2] deals with plasma level of uric acid. The data set is described as follows: in vivo lowering of plasma uric acid, oral, rats. The note with it: Rattus norvegicus, read-out: ED50 (dose which reduces plasma level of uric acid by one-half). As for the experimental part:
(§1) Compounds corresponding to formulas Ia, Ib and Ic above are active in vivo in lowering plasma uric acid levels. […] The first method, the spectrofluorometric method, was modified from the precedure of Sumi et al., Clinica. Chimica. Acta., 73, 233 (1976). Rats were sacrificed by decapitation and their blood collected into vacutainer tubes containing heparin via heparinized glass funnels. The blood was centrifuged for 8 minutes at 4000 rpm after which time the plasma was separated and diluted 1:1 with water. Plasma protein was precipitated by addition of acetic acid to a final concentration of 0.007 molar and boiling the resulting mixture for 5 minutes in Sorval tubes. Clear deprotein plasma was obtained after centrifugation of the resulting plasma for 30 minutes at 25,000 rpm. Uric acid was assayed as follows: 0.2 ml. aliquots of the clear deproteinized plasma were mixed with 120 λ of uricase (0.045 mu/ml.) and incubated for 30 minutes at 27° C. 1.0 ml. of a p-hydroxyphenylacetic acid buffer was added. Samples obtained from feeding rats or dogs serial doses of the compound under test were incubated with the above buffer solution for 30 minutes at 27° C. Fluoroescence of the solution was measured in quartz tubes using an Aminco Bowman-Spectrofluorimeter having excitation of 321 nm and emission at 412 nm. Five uric acid standards from 6-30 micromolar were assayed for each test and each standard yielded a linear curve.
The second method is called the HPLC-EC Detection method. In this procedure, blood plasma was collected from rats as described above and from dogs in heparinized syringes from the cefalic vein in the forearm. The blood plasma was centrifuged with Sure-Sep to separate plasma. Deproteinized plasma was prepared in each instance by first diluting one volume of plasma with one volume of an internal standard solution, 4 mcg./ml., and then addition of two volumes of 5% trichloroacetic acid. Standards were added to control plasma in the range of 0-8 mcg./ml. of uric acid. Samples obtained by feeding graded doses of the drug under test to dogs or rats were mixed for 30 seconds and then centrifuged in an Eppendorf microcentrifuge. Supernates were diluted 1:10 in column buffer and assayed for uric acid. Internal standards used were 3-methyluric acid for the rat samples and 3,9-dimethyluric acid for dog samples. Assays were performed as follows using a Bioanlaytic Systems Inc. LC-44 analyser and an electrochemical detector system based on an Altex model 110 pump coupled with a CP-O carbon paste electrodetector. […] Uric acid levels were then calculated from peak areas by computer analysis. […]

The nature of another data set: oral LD50 in mice. The note with it: mouse, in vivo; for selectivity ratio: LD50 oral mice / ED50 oral rats; for LD50: oral, mice, with standard error, read-out: LD50 (dose which kills one-half of the animals). From the text: The compounds represented by the above formula are also relatively non-toxic. In column 3 of Table IV are listed the oral LD50 for mice in mg. per kg. (with standard error) for each of the compounds of column 1 (dose which kills one-half of the animals). Finally, column 4 in Table IV gives the ratio of LD50 to ED50. It will be seen that the ratio of the LD50 to the ED50 is quite high, giving a substantial margin of safety for using the compounds of formulas Ia, Ib, and Ic in treating gout in mammals, particularly humans.

The test system of data set [3] is xanthine oxidase. Description: oral administration in rats, in vivo inhibition of xanthine oxidase (Table V). On the set-up: species or system rat. The protocol:
as §1, with “Samples obtained from feeding rats or dogs serial doses of the compound under test were incubated with the above buffer solution for 30 minutes at 27° C.” left out, “Five uric acid standards from 6-30 micromolar were assayed for each test and each standard yielded a linear curve.” left out
The second method is called the HPLC-EC Detection method. […] Uric acid levels were then calculated from peak areas by computer analysis. […]

Where [4] appears, read: milk xanthine oxidase, 0.05 micromoles xanthine in 1 ml, pH 7.4, room temperature, read-out: I50 (concentration of drug which inhibits 50% of the oxidation of xanthine to uric acid) (converted).

T1 sequence (P80457 whole entry): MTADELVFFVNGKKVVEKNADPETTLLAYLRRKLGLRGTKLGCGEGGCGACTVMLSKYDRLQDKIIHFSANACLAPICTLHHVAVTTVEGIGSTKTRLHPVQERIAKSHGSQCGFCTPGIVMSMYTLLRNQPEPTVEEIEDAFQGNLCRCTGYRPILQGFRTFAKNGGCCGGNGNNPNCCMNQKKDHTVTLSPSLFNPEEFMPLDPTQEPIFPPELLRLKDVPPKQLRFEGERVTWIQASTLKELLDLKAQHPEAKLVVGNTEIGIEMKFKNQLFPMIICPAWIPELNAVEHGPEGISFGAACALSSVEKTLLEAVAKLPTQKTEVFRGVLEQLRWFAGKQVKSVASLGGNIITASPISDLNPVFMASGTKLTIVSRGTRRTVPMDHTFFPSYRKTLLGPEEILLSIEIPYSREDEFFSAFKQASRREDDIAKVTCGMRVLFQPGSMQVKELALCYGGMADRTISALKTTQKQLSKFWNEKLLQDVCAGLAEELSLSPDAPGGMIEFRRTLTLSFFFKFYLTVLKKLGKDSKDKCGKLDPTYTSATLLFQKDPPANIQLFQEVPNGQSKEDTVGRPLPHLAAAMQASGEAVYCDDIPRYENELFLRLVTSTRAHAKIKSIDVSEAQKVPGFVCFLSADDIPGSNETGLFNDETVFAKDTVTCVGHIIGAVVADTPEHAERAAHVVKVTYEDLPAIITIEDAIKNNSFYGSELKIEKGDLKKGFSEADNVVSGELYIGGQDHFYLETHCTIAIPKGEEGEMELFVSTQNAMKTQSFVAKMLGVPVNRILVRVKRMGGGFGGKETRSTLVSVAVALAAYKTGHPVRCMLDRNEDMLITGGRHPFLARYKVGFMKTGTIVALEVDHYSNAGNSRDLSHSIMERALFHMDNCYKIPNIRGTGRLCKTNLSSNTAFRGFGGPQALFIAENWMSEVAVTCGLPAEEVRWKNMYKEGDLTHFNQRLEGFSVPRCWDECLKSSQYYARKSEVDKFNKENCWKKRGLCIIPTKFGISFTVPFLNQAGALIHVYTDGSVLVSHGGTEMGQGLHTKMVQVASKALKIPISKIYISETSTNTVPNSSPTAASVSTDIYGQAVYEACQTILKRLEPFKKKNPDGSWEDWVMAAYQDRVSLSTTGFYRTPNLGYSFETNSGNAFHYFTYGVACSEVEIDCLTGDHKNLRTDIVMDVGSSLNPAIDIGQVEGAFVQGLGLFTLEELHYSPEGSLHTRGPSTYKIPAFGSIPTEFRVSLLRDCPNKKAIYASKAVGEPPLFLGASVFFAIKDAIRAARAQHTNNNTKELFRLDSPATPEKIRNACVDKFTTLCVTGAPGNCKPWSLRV

For the molecule `Cn1nc(-c2cccc(Br)c2)cc1C(=O)O` [R=3-Br, R^1=H, 1-Methyl-3-(3-bromophenyl)pyrazole-5-carboxylic acid], the IC50 at xanthine oxidase [1] (setting [4]) was 71.1 nM. Usually ED50 stands for the dose at which the effect has come halfway, by size or by number of responders. What is called LD50 is the dose at which mortality reaches 50%. Consider `Cn1nc(-c2cccc(C(F)(F)F)c2)cc1C(=O)O` [R=3-CF3, R^1=H, 1-methyl-3-(3-trifluoromethylphenyl)pyrazole-5-carboxylic acid], for which the IC50 at xanthine oxidase [1] (setting [4]) is 25.9 nM. In addition, the ED50 in data set [2] was found to be 30 mg/kg. Besides, in “oral LD50 in mice”, the selectivity ratio is 19.5 and the LD50 was determined as 585 ± 45 mg/kg. Consider `O=C(O)c1cc(-c2cccc(C(F)(F)F)c2)n[nH]1` [R=3-CF3, X=H, 3(5)-(3-trifluoromethylphenyl)pyrazole-5(3)-carboxylic acid], for which the IC50 at xanthine oxidase [1] (setting [4]) was 390 nM. In the case of `O=C(O)c1[nH]nc(-c2cccc(C(F)(F)F)c2)c1O` [R=3-CF3, X=OH, 3(5)-(3-Trifluoromethylphenyl)-4-hydroxypyrazole-5(3)-carboxylic acid], the IC50 at xanthine oxidase [1] (setting [4]) is 44.8 nM. On the same count and under the same terms, under `Cc1cccc(-c2cc(C(=O)O)n(C)n2)c1` [R=3-CH3, R^1=H, 1-Methyl-3-(m-tolyl)pyrazole-5-carboxylic acid] stands 1390 nM; under `Cn1nc(-c2ccc(Cl)c(Cl)c2)cc1C(=O)O` [R=3-Cl, R^1=4-Cl, 1-Methyl-3-(3,4-dichlorophenyl)pyrazole-5-carboxylic acid], 177 nM.

With `Cn1nc(-c2cccc(Cl)c2)cc1C(=O)O` [R=3-Cl, R^1=H, 1-Methyl-3-(3-chlorophenyl)pyrazole-5-carboxylic acid], the IC50 on xanthine oxidase [1] (setting [4]) is 304 nM.

`COc1ccc(-c2cc(C(=O)O)n(C)n2)cc1OC` [R=3-OCH3, R^1=4-OCH3, 1-Methyl-3-(3,4-dimethyoxyphenyl)pyrazole-5-carboxylic acid]: the IC50 at xanthine oxidase [1] (setting [4]) is 244 nM.

Turning to `Cn1nc(-c2ccc(Br)cc2)cc1C(=O)O` [R=4-Br, R^1=H, 1-methyl-3-(4-bromophenyl)pyrazole-5-carboxylic acid], the IC50 at xanthine oxidase [1] (setting [4]) is 416 nM. For `Cn1nc(-c2ccc(C(F)(F)F)cc2)cc1C(=O)O` [R=4-CF3, R^1=H, 1-methyl-3-(4-trifluoromethylphenyl)pyrazole-5-carboxylic acid], the IC50 at xanthine oxidase [1] (setting [4]) is 426 nM. The same measure, in the same setting: with `Cn1nc(-c2ccc(Cl)cc2)cc1C(=O)O` [R=4-Cl, R^1=H, 1-Methyl-3-(4-chlorophenyl)pyrazole-5-carboxylic acid] the figure was 1690 nM; with `O=C(O)c1[nH]nc(-c2ccc(F)cc2)c1O` [R=4-F, X=OH], 1580 nM.

On to `COc1ccc(-c2cc(C(=O)O)n(C)n2)cc1` [R=4-OCH3, R^1=H, 1-Methyl-3-(4-methoxyphenyl)pyrazole-5-carboxylic acid], for which the IC50 at xanthine oxidase [1] (setting [4]) was 310 nM. Regarding `COc1ccc(-c2n[nH]c(C(=O)O)c2O)cc1` [R=4-OMe, X=OH], the IC50 on xanthine oxidase [1] (setting [4]) is 726 nM. With `Cn1nc(-c2cccc(Br)c2)c(Cl)c1C(=O)O` [R=Br, X=Cl, 1-Methyl-3-(3-bromophenyl)-4-chloropyrazole-5-carboxylic acid], the IC50 on xanthine oxidase [1] (setting [4]) was 66.5 nM. Turning to `Cn1nc(-c2cccc(C(F)(F)F)c2)c(Br)c1C(=O)O` [R=CF3, X=Br, 1-methyl-3-(3-trifluoromethylphenyl)-4-bromopyrazole-5-carboxylic acid], the IC50 at xanthine oxidase [1] (setting [4]) was 57.3 nM. Also, the ED50 in data set [2] worked out at 11 mg/kg. In “oral LD50 in mice”, the selectivity ratio fell in the range of 27 to 45 and the LD50 is 300 to 500 mg/kg. At xanthine oxidase [1], `Cn1nc(-c2cccc(C(F)(F)F)c2)c(Cl)c1C(=O)O` [R=CF3, X=Cl, 1-Methyl-3-(3-trifluoromethylphenyl)-4-chloropyrazole-5-carboxylic acid] had an IC50 of 46 nM. Moreover, the ED50 in data set [2] is 8.5 mg/kg. In the data set “oral LD50 in mice”, the selectivity ratio worked out at 38 and the LD50 came to 322 ± 38 mg/kg.

Regarding `Cn1nc(-c2cccc(C(F)(F)F)c2)c(N)c1C(=O)O` [R=CF3, X=NH2, 1-Methyl-3-(3-trifluoromethylphenyl)-4-aminopyrazole-5-carboxylic acid], on xanthine oxidase [1] (setting [4]), the IC50 is 30.2 nM. Also, the ED50 in data set [2] came out at 23 mg/kg.

Regarding `Cn1nc(-c2cccc(C(F)(F)F)c2)c(O)c1C(=O)O` [R=CF3, X=OH, 1-methyl-3-(3-trifluoromethylphenyl)-4-hydroxypyrazole-5-carboxylic acid], the IC50 on xanthine oxidase [1] (setting [4]) is 28 nM. Consider `Cn1nc(-c2cccc(C(F)(F)F)c2)cc1C(N)=O` [R=NH2], for which, in the data set with xanthine oxidase [3] (dosage 90 mg·kg), the “Oral Percent Inhibition” value is recorded as 23.5%. Take `COC(=O)c1cc(-c2cccc(C(F)(F)F)c2)nn1C` [R=OCH3, methyl 1-methyl-3-(3-trifluoromethylphenyl)pyrazole-5-carboxylate]: the “Oral Percent Inhibition” value in the data set with xanthine oxidase [3] (dosage 24 mg·kg) worked out at 50%.
